According to PubChem BioAssay AID256 (DTP/NCI, 2004):
Several values for one entry are separate records, joined by “and”; a condition that tells them apart may be missing. Equal values may be shown once. Inconclusive results and toxic doses are left out.

Test system: CD2F1 mice, L1210 leukemia ip, survival T/C
Experiment: NCI In Vivo Anticancer Drug Screen. Data for tumor model L1210 Leukemia (intraperitoneal) in CD2F1 (CDF1) mice
Details: higher = longer survival
Outline: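 Mice carrying a transplanted tumor received test compound or vehicle alone. The value is the measurement in the treated group divided by that in the vehicle-treated control group.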

[1] = endpoint: mean survival time, dose: 12.5 mg/kg/injection, schedule: Q01DX009 (ip), vehicle: saline with Tween-80
[2] = endpoint: mean survival time, dose: 50.0 mg/kg/injection, schedule: Q01DX009 (ip), vehicle: saline
[3] = endpoint: mean survival time, dose: 100.0 mg/kg/injection, schedule: Q01DX009 (ip), vehicle: saline
[4] = endpoint: mean survival time, dose: 200.0 mg/kg/injection, schedule: Q01DX009 (ip), vehicle: saline
[5] = endpoint: median survival time, dose: 50.0 mg/kg/injection, schedule: Q04DX002 (ip), vehicle: saline with Tween-80
[6] = endpoint: median survival time, dose: 100.0 mg/kg/injection, schedule: Q04DX002 (ip), vehicle: saline with Tween-80
[7] = endpoint: median survival time, dose: 200.0 mg/kg/injection, schedule: Q04DX002 (ip), vehicle: saline with Tween-80
[8] = endpoint: mean survival time, dose: 400.0 mg/kg/injection, schedule: Q01DX009 (ip), vehicle: saline
[9] = endpoint: mean survival time, dose: 100.0 mg/kg/injection, schedule: Q01DX009 (ip), vehicle: saline with Tween-80
[10] = endpoint: mean survival time, dose: 200.0 mg/kg/injection, schedule: Q01DX009 (ip), vehicle: saline with Tween-80
[11] = endpoint: mean survival time, dose: 400.0 mg/kg/injection, schedule: Q01DX009 (ip), vehicle: saline with Tween-80
[12] = endpoint: mean survival time, dose: 25.0 mg/kg/injection, schedule: Q01DX009 (ip), vehicle: saline with Tween-80
[13] = endpoint: mean survival time, dose: 50.0 mg/kg/injection, schedule: Q01DX009 (ip), vehicle: saline with Tween-80

## CC(=O)Nc1ccccc1[N+](=O)[O-]
endpoint: mean survival time, dose: 100.0 mg/kg/injection, schedule: Q01DX001 (ip), vehicle: saline with Tween-80
  T/C: 103 % of control
endpoint: mean survival time, dose: 200.0 mg/kg/injection, schedule: Q01DX001 (ip), vehicle: saline with Tween-80
  T/C: 101 % of control
endpoint: mean survival time, dose: 400.0 mg/kg/injection, schedule: Q01DX001 (ip), vehicle: saline with Tween-80
  T/C: 103 % of control

## N#CCCc1ccccc1
endpoint: mean survival time, dose: 3.13 mg/kg/injection, schedule: Q01DX009 (ip), vehicle: saline with Tween-80
  T/C: 97 % of control
endpoint: mean survival time, dose: 3.13 mg/kg/injection, schedule: Q04DX003 (ip), vehicle: saline
  T/C: 92 % of control
endpoint: mean survival time, dose: 6.25 mg/kg/injection, schedule: Q01DX009 (ip), vehicle: saline with Tween-80
  T/C: 94 % of control
endpoint: mean survival time, dose: 6.25 mg/kg/injection, schedule: Q04DX003 (ip), vehicle: saline
  T/C: 89 % of control
[1]
  T/C: 94 % of control
endpoint: mean survival time, dose: 12.5 mg/kg/injection, schedule: Q04DX003 (ip), vehicle: saline with Tween-80
  T/C: 106 % of control
endpoint: mean survival time, dose: 12.5 mg/kg/injection, schedule: Q04DX003 (ip), vehicle: saline
  T/C: 92 % of control
endpoint: mean survival time, dose: 25.0 mg/kg/injection, schedule: Q04DX003 (ip), vehicle: saline with Tween-80
  T/C: 123 % of control
endpoint: mean survival time, dose: 50.0 mg/kg/injection, schedule: Q04DX003 (ip), vehicle: saline with Tween-80
  T/C: 92 % of control

## COc1ccc2c(c1OC(C)=O)-c1cc(OC(C)=O)cc3c1C(C2)N(C(=O)CCl)CC3 (configuration not stated)
endpoint: mean survival time, dose: 25.0 mg/kg/injection, schedule: Q04DX003 (ip), vehicle: DMSO
  T/C: 101 % of control
endpoint: mean survival time, dose: 50.0 mg/kg/injection, schedule: Q04DX003 (ip), vehicle: DMSO
  T/C: 96 % of control
endpoint: mean survival time, dose: 100.0 mg/kg/injection, schedule: Q04DX003 (ip), vehicle: DMSO
  T/C: 101 % of control

## Cc1cc(NC(=O)Oc2ccccc2)ccc1S(=O)(=O)F
[2]
  T/C: 98 % of control
[3]
  T/C: 94 % of control
[4]
  T/C: 98 % of control

## Cc1ccccc1S(=O)(=O)N/N=C/c1ccsc1
[5]
  T/C: 90 % of control
[6]
  T/C: 90 % of control
[7]
  T/C: 100 % of control
endpoint: median survival time, dose: 400.0 mg/kg/injection, schedule: Q04DX002 (ip), vehicle: saline with Tween-80
  T/C: 90 % of control

## NCCc1cc(O)c(O)c(O)c1
endpoint: mean survival time, dose: 12.5 mg/kg/injection, schedule: Q01DX009 (ip), vehicle: saline
  T/C: 96 % of control and 100 % of control
endpoint: mean survival time, dose: 25.0 mg/kg/injection, schedule: Q01DX009 (ip), vehicle: saline
  T/C: 100 % of control and 102 % of control
[2]
  T/C: 103 % of control and 106 % of control
[3]
  T/C: 122 % of control
[4]
  T/C: 119 % of control and 124 % of control
[8]
  T/C: 119 % of control

## CC(=O)N(CC(=O)O)c1ccccc1
[9]
  T/C: 98 % of control
[10]
  T/C: 96 % of control
[11]
  T/C: 96 % of control

## COc1ccc(P(=S)(S)c2ccc(OC)cc2)cc1
endpoint: mean survival time, dose: 80.5 mg/kg/injection, schedule: Q01DX009 (ip), vehicle: saline with Tween-80
  T/C: 95 % of control
endpoint: mean survival time, dose: 161.0 mg/kg/injection, schedule: Q01DX009 (ip), vehicle: saline with Tween-80
  T/C: 93 % of control
endpoint: mean survival time, dose: 322.0 mg/kg/injection, schedule: Q01DX009 (ip), vehicle: saline with Tween-80
  T/C: 93 % of control

## ON=c1c2ccccc2oc2ccccc12
endpoint: mean survival time, dose: 100.0 mg/kg/injection, schedule: Q04DX002 (ip), vehicle: Klucel (hydroxypropylcellulose) (HPC)
  T/C: 92 % of control
endpoint: mean survival time, dose: 200.0 mg/kg/injection, schedule: Q04DX002 (ip), vehicle: Klucel (hydroxypropylcellulose) (HPC)
  T/C: 100 % of control

## O=P1(NCCCl)OC(c2ccccc2)=CCN1CCCl (configuration not stated)
endpoint: median survival time, dose: 31.25 mg/kg/injection, schedule: Q01DX001 (ip), vehicle: distilled water + Tween-80
  T/C: 102 % of control
endpoint: median survival time, dose: 62.5 mg/kg/injection, schedule: Q01DX001 (ip), vehicle: distilled water + Tween-80
  T/C: 97 % of control
endpoint: median survival time, dose: 125.0 mg/kg/injection, schedule: Q01DX001 (ip), vehicle: distilled water + Tween-80
  T/C: 97 % of control
endpoint: median survival time, dose: 250.0 mg/kg/injection, schedule: Q01DX001 (ip), vehicle: distilled water + Tween-80
  T/C: 101 % of control
endpoint: median survival time, dose: 500.0 mg/kg/injection, schedule: Q01DX001 (ip), vehicle: distilled water + Tween-80
  T/C: 93 % of control

## O=Cc1cccc2ccc3ccccc3c12
[5]
  T/C: 111 % of control
[6]
  T/C: 100 % of control
[7]
  T/C: 111 % of control

## O=C(O)CCc1cc([N+](=O)[O-])c(O)c([N+](=O)[O-])c1
[9]
  T/C: 94 % of control
[10]
  T/C: 89 % of control

## CN1CCC(c2ccccc2)c2ccccc21 (configuration not stated)
endpoint: mean survival time, dose: 50.0 mg/kg/injection, schedule: Q04DX003 (ip), vehicle: other
  T/C: 97 % of control
endpoint: mean survival time, dose: 100.0 mg/kg/injection, schedule: Q04DX003 (ip), vehicle: other
  T/C: 100 % of control
endpoint: mean survival time, dose: 200.0 mg/kg/injection, schedule: Q04DX003 (ip), vehicle: other
  T/C: 100 % of control
endpoint: mean survival time, dose: 400.0 mg/kg/injection, schedule: Q04DX003 (ip), vehicle: other
  T/C: 100 % of control

## CN(C)N=Nc1c(F)cc(F)c(F)c1F
[12]
  T/C: 101 % of control
[13]
  T/C: 104 % of control
[9]
  T/C: 104 % of control

## Cc1cccc(C)c1NC(=S)N1CCC(CCCC2CCN(C(=S)Nc3c(C)cccc3C)CC2)CC1
endpoint: mean survival time, dose: 100.0 mg/kg/injection, schedule: Q04DX003 (ip), vehicle: saline with Tween-80
  T/C: 105 % of control
endpoint: mean survival time, dose: 200.0 mg/kg/injection, schedule: Q04DX003 (ip), vehicle: saline with Tween-80
  T/C: 96 % of control
endpoint: mean survival time, dose: 400.0 mg/kg/injection, schedule: Q04DX003 (ip), vehicle: saline with Tween-80
  T/C: 96 % of control

## Cc1ncc(CO)c(CO)c1O
[3]
  T/C: 100 % of control
[4]
  T/C: 94 % of control
[8]
  T/C: 95 % of control

## O=C1C=CC(=O)N1c1nccs1
[9]
  T/C: 91 % of control
[10]
  T/C: 95 % of control
[11]
  T/C: 95 % of control

## O=S(=O)(F)c1ccc(S)c(Cl)c1Cl
endpoint: mean survival time, dose: 100.0 mg/kg/injection, schedule: Q04DX002 (ip), vehicle: saline with Tween-80
  T/C: 98 % of control

## N/C(=N\O)c1ncn(C2CCCC2)c1N
endpoint: mean survival time, dose: 75.0 mg/kg/injection, schedule: Q01DX001 (ip), vehicle: other
  T/C: 100 % of control
endpoint: mean survival time, dose: 150.0 mg/kg/injection, schedule: Q01DX001 (ip), vehicle: other
  T/C: 102 % of control

## C#CC1(c2ccccc2)OCCO1
[1]
  T/C: 97 % of control
[12]
  T/C: 97 % of control
[13]
  T/C: 94 % of control

## CCOC(=O)c1[nH]c(C)c(C(=O)OCC)c1C
endpoint: mean survival time, dose: 100.0 mg/kg/injection, schedule: Q04DX003 (ip), vehicle: Klucel (hydroxypropylcellulose) (HPC)
  T/C: 103 % of control
endpoint: mean survival time, dose: 200.0 mg/kg/injection, schedule: Q04DX003 (ip), vehicle: Klucel (hydroxypropylcellulose) (HPC)
  T/C: 103 % of control
endpoint: mean survival time, dose: 400.0 mg/kg/injection, schedule: Q04DX003 (ip), vehicle: Klucel (hydroxypropylcellulose) (HPC)
  T/C: 95 % of control

## Nc1ncnc2c1c1c(=O)[nH]c(=O)[nH]c1n2C1OC(CO)C(O)C1O (configuration not stated)
endpoint: mean survival time, dose: 12.5 mg/kg/injection, schedule: Q01DX005 (ip), vehicle: distilled water + Tween-80
  T/C: 111 % of control
endpoint: mean survival time, dose: 25.0 mg/kg/injection, schedule: Q01DX005 (ip), vehicle: distilled water + Tween-80
  T/C: 116 % of control
endpoint: mean survival time, dose: 50.0 mg/kg/injection, schedule: Q01DX005 (ip), vehicle: distilled water + Tween-80
  T/C: 119 % of control
endpoint: mean survival time, dose: 100.0 mg/kg/injection, schedule: Q01DX005 (ip), vehicle: distilled water + Tween-80
  T/C: 158 % of control
endpoint: mean survival time, dose: 200.0 mg/kg/injection, schedule: Q01DX005 (ip), vehicle: distilled water + Tween-80
  T/C: 172 % of control
endpoint: mean survival time, dose: 400.0 mg/kg/injection, schedule: Q01DX005 (ip), vehicle: distilled water + Tween-80
  T/C: 208 % of control
endpoint: median survival time, dose: 25.0 mg/kg/injection, schedule: Q01DX009 (ip), vehicle: distilled water + Tween-80
  T/C: 114 % of control
endpoint: median survival time, dose: 50.0 mg/kg/injection, schedule: Q01DX009 (ip), vehicle: distilled water + Tween-80
  T/C: 115 % of control and 109 % of control
endpoint: median survival time, dose: 100.0 mg/kg/injection, schedule: Q01DX009 (ip), vehicle: distilled water + Tween-80
  T/C: 121 % of control and 110 % of control
endpoint: median survival time, dose: 400.0 mg/kg/injection, schedule: Q01DX009 (ip), vehicle: distilled water + Tween-80
  T/C: 105 % of control

## O=S(=O)(OC(Cc1ccccc1)Cc1ccccc1)c1ccc(Br)cc1
[13]
  T/C: 95 % of control
[9]
  T/C: 91 % of control
[10]
  T/C: 95 % of control

## Cc1ccc(S(=O)(=O)OCCc2cccc3ccccc23)cc1
endpoint: mean survival time, dose: 100.0 mg/kg/injection, schedule: Q01DX001 (ip), vehicle: saline
  T/C: 101 % of control
endpoint: mean survival time, dose: 200.0 mg/kg/injection, schedule: Q01DX001 (ip), vehicle: saline
  T/C: 101 % of control
endpoint: mean survival time, dose: 400.0 mg/kg/injection, schedule: Q01DX001 (ip), vehicle: saline
  T/C: 98 % of control
